Measurements: paper PMC7714403 (JCI Insight, 2020)
Like-named read-outs stand apart in the source and are kept apart here.

Experiments:
JAK1 = molecular target: T1, JAK1 (Homo sapiens, UniProt P23458); test: KdELECT binding assay
T1 construct: purchased Eurofins DiscoverX

OCI-AML3 cells = test: Viability assay; format: cell-based; conditions: Homo sapiens, OCI-AML-3, read-out: IC50 viability
Description: Drug treatments were carried out for 72 hours. Details are provided in the Supplemental Methods.

FLT3-ITD and TKD mutants = test: KdELECT binding assay; conditions: range over FLT3-ITD and TKD mutants
CaMK1a = CaMK1a (Homo sapiens, UniProt Q14012); test: KiNativ, OCI cells live cell; format: cell-based; conditions: 2 h
CaMK1a, sequence (Q14012 whole entry): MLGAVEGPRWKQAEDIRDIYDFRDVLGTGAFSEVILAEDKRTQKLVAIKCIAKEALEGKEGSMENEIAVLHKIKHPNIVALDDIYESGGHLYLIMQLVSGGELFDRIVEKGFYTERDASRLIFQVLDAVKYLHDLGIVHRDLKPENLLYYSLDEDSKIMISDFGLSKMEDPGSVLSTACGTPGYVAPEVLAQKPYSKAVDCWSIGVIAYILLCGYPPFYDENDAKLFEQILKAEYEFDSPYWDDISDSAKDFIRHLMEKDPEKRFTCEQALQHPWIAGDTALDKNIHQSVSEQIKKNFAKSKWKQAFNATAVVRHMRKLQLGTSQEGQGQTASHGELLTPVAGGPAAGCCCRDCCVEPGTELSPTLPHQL

JNK1, JNK2, JNK3 = test: KiNativ, OCI cells live cell; format: cell-based, human; conditions: labeling site Lys2, peptide DLKPSNIVVK
LATS2 = molecular target: T2, LATS2 (Homo sapiens, UniProt Q9NRM7); test: KiNativ, OCI cells live cell; format: cell-based
T2 sequence (Q9NRM7 1-1088): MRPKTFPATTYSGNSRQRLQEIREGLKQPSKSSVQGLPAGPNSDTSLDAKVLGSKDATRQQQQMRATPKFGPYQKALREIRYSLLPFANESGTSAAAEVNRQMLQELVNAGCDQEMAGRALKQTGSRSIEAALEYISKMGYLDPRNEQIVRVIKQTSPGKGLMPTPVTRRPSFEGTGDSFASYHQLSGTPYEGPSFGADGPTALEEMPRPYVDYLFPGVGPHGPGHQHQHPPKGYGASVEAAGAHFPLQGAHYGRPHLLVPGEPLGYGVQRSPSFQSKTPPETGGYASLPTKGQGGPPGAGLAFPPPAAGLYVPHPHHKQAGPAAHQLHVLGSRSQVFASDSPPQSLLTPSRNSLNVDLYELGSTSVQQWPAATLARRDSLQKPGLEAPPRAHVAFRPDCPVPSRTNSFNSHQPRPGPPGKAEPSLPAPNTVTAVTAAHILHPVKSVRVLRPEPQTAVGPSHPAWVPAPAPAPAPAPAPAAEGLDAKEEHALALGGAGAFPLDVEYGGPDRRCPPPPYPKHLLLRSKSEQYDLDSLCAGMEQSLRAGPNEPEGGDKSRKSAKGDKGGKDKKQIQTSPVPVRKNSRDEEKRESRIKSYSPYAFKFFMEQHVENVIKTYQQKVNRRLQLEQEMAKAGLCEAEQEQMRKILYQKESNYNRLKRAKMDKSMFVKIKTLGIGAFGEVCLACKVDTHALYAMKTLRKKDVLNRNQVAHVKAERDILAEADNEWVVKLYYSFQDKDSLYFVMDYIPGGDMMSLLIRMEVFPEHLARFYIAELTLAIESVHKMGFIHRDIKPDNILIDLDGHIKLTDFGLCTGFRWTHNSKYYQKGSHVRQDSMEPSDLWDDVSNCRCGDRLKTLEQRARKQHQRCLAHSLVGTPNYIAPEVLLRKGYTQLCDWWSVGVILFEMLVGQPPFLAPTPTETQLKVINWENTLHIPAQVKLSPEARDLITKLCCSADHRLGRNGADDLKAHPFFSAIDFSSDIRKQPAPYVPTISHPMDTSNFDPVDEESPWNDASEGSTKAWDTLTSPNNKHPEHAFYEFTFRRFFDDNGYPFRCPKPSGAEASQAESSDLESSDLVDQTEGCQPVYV

MAP3K5 = MAP3K5 (Homo sapiens, UniProt Q99683); test: KiNativ, OCI cells live cell; format: cell-based; conditions: 2 h, labeling site Lys2, peptide […]
MAP3K5, sequence (Q99683 whole entry): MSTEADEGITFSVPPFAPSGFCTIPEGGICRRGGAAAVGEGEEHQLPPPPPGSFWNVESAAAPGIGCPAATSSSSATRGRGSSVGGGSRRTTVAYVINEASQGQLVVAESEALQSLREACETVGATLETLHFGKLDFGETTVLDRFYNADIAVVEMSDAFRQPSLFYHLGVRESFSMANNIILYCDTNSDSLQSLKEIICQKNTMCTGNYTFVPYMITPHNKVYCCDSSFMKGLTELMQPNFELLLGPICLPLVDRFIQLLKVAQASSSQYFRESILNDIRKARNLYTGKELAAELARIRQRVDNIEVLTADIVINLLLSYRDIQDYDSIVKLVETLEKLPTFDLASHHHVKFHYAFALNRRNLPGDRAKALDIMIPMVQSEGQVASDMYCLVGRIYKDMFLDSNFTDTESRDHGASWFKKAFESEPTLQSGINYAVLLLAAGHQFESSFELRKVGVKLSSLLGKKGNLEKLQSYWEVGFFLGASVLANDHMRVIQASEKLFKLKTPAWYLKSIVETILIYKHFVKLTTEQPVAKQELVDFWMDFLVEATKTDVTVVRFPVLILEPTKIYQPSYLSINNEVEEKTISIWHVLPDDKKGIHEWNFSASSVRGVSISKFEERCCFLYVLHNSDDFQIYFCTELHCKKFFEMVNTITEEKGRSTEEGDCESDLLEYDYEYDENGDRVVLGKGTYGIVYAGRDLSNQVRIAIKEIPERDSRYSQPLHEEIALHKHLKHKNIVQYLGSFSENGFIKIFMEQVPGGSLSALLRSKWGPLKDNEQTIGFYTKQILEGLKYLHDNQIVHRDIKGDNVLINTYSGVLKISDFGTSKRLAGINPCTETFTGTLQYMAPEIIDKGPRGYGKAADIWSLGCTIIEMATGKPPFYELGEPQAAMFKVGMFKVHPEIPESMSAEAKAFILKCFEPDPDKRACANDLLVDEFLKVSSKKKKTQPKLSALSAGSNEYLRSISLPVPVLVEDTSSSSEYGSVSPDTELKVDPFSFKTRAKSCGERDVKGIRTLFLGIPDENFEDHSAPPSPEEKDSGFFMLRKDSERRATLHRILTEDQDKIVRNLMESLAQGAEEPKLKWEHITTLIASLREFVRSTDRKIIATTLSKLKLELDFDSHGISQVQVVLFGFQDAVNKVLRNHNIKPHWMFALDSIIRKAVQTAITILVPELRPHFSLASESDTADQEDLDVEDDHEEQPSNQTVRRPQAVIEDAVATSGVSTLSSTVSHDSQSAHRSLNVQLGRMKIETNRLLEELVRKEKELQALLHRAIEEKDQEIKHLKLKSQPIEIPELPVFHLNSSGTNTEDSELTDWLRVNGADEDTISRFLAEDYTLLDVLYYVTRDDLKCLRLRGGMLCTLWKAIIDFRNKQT

MARK3, MARK4 = test: KiNativ, OCI cells live cell; format: cell-based, human; conditions: labeling site Lys1, peptide EVAIKIIDK
NLK = NLK (Homo sapiens, UniProt Q9UBE8); test: KiNativ, OCI cells live cell; format: cell-based; conditions: 2 h, labeling site Lys2, peptide […]
NLK, sequence (Q9UBE8 whole entry): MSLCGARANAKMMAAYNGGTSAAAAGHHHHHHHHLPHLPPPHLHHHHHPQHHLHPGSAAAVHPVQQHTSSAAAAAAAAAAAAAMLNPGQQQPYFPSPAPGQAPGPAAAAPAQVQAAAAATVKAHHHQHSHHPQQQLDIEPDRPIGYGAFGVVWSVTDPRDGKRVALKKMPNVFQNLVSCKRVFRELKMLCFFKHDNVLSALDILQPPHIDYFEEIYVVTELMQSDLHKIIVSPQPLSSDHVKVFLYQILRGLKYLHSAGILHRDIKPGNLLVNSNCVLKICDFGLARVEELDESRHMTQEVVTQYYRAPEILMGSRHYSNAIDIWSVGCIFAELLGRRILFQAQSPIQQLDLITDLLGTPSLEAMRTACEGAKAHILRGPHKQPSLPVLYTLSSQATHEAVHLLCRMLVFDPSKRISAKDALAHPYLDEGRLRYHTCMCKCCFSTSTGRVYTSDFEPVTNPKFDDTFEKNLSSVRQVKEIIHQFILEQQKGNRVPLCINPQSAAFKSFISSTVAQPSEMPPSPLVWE

Wnk1, Wnk2, Wnk4 = test: KiNativ, OCI cells live cell; format: cell-based, human; conditions: labeling site Activation Loop, peptide IGDLGLATLKR
ZAP70 = molecular target: T3, ZAP70 (Homo sapiens, UniProt P43403); test: KiNativ, OCI cells live cell; format: cell-based; conditions: 2 h, labeling site Activation Loop
T3 sequence (P43403 1-619): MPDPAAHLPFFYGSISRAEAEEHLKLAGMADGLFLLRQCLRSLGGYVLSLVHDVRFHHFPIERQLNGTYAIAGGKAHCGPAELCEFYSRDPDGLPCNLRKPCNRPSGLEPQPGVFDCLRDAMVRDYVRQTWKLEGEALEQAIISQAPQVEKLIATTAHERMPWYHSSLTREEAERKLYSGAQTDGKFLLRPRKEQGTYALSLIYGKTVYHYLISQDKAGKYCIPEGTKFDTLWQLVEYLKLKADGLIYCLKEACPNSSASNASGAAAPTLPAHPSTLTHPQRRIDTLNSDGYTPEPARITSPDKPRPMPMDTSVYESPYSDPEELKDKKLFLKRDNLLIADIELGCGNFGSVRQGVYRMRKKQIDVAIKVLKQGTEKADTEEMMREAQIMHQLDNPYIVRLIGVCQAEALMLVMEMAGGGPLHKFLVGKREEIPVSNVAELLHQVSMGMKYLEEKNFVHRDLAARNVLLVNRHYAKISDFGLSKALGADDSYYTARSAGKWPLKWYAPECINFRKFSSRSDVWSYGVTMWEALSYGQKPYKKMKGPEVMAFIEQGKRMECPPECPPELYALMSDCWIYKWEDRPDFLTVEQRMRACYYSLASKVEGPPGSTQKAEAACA

T1 sequence (P23458 whole entry): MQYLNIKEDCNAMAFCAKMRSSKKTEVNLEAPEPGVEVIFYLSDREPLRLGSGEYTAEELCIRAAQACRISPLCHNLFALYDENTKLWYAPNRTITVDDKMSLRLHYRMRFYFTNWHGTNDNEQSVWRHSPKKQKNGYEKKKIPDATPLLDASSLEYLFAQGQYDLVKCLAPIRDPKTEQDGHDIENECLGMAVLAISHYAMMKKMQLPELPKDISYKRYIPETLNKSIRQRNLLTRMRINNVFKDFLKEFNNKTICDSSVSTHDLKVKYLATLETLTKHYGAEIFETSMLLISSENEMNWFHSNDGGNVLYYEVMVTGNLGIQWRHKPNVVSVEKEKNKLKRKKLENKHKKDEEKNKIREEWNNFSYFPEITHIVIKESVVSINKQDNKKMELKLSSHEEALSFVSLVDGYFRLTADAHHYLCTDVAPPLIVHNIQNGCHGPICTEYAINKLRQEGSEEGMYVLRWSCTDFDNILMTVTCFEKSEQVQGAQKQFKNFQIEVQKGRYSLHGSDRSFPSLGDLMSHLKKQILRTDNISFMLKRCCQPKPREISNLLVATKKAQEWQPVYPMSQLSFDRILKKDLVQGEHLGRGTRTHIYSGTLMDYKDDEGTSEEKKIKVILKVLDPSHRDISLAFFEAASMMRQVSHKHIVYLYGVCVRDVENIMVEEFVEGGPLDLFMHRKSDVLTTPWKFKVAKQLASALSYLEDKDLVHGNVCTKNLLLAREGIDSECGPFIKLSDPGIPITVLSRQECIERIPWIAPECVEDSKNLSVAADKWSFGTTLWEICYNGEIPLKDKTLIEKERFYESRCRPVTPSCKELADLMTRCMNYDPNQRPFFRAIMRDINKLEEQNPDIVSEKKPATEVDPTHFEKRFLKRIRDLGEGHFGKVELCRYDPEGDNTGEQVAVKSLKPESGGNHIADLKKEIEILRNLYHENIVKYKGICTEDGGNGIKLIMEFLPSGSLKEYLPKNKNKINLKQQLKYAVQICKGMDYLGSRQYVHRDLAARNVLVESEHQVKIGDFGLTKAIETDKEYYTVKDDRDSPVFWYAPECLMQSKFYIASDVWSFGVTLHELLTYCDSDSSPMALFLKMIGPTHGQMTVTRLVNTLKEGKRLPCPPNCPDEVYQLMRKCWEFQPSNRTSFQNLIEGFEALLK

Q: Which results are given for `CN1CCN(Cc2ccc(Nc3ncc(Cl)c(Nc4ccccc4S(=O)(=O)N(C)C)n3)cc2)CC1` [TP-0903]?
A: Kd (JAK1): 23 nM; IC50 (OCI-AML3 cells): 37 nM; Kd (FLT3-ITD and TKD mutants): 0.79 to 5.6 nM; inhibition at 0.1 µM (CaMK1a; labeling site Lys1, peptide LVAIKCIAK): -6.6%; inhibition at 0.1 µM (CaMK1a; labeling site Lys2, peptide DLKPENLLYYSLDEDSK): -19.1%; Inhibition (JNK1, JNK2, JNK3): 14.0%; Inhibition (LATS2; labeling site Lys1, peptide VDTHALYAMKTLR): -1.0%; Inhibition (LATS2; labeling site Lys2, peptide DIKPDNILIDLDGHIK): -30.2%; inhibition at 0.1 µM (MAP3K5): -1.8%; Inhibition (MARK3, MARK4): 43.9%; inhibition at 0.1 µM (NLK): -23%; Inhibition (Wnk1, Wnk2, Wnk4): -23.7%; inhibition at 0.1 µM (ZAP70; peptide ISDFGLSKALGADDSYYTAR): -29.4%; inhibition at 0.1 µM (ZAP70; peptide […], read-out: Inhibition): -4%
